pIC50: −log10 of the molar value. Values belong to the molecule of their own block, whether it stands above or below them.
Tests used:
Format in all cases: biochemical
CSK = CSK (Homo sapiens, UniProt P41240); assay: CSK kinase inhibition
RET = RET (Homo sapiens, UniProt P07949); assay: RET kinase inhibition
Lck = Lck (Homo sapiens, UniProt P06239); assay: Lck kinase inhibition
Description: (§1) Btk kinase activity was determined using a time-resolved fluorescence resonance energy transfer (TR-FRET) methodology. Measurements were performed in a reaction volume of 50 μL using 96-well assay plates. […] The reaction was quenched by the addition of 1.2 equivalents of EDTA (relative to divalent cation) in 25 μL of 1× Lance buffer (Perkin-Elmer). Streptavidin-APC (Perkin-Elmer) and Eu-labeled p-Tyr100 antibody (Perkin-Elmer) in 1× Lance buffer were added in a 25 μL volume to give final concentrations of 100 nM and 2.5 nM, respectively, and the mixture was allowed to incubate for one hour. The TR-FRET signal was measured on a multimode plate reader with an excitation wavelength (λEx) of 330 nm and detection wavelengths (λEm) of 615 and 665 nm. Activity was determined by the ratio of the fluorescence at 665 nm to that at 615 nm. For each compound, enzyme activity was measured at various concentrations of compound. Negative control reactions were performed in the absence of inhibitor in replicates of six, and two no-enzyme controls were used to determine baseline fluorescence levels Inhibition constants, Ki(app), were obtained using the program BatchKi (Kuzmic et al. (2000), Anal. Biochem. 286:45-50). IC50s were obtained according to the equation: IC50={Ki(app)/(1+[ATP]/Km^ATP)}+[E]total/2; For all kinases, [ATP]=Km^ATP, [Btk]total=0.5 nM and [Lck]total=6 nM.

Btk = molecular target: T1, Btk (Homo sapiens, UniProt Q06187); assay: Btk in vitro inhibitory activity (one of Methods A, B, C); settings: determined in one of three in vitro assays (Examples 125-127)
T1 construct: purified from insect cells as a full-length construct containing a N-terminal 6×-His tag; 6xHis (N); host or cells: insect cells (baculovirus Sf21 in Method B)
T1 sequence (Q06187 whole entry): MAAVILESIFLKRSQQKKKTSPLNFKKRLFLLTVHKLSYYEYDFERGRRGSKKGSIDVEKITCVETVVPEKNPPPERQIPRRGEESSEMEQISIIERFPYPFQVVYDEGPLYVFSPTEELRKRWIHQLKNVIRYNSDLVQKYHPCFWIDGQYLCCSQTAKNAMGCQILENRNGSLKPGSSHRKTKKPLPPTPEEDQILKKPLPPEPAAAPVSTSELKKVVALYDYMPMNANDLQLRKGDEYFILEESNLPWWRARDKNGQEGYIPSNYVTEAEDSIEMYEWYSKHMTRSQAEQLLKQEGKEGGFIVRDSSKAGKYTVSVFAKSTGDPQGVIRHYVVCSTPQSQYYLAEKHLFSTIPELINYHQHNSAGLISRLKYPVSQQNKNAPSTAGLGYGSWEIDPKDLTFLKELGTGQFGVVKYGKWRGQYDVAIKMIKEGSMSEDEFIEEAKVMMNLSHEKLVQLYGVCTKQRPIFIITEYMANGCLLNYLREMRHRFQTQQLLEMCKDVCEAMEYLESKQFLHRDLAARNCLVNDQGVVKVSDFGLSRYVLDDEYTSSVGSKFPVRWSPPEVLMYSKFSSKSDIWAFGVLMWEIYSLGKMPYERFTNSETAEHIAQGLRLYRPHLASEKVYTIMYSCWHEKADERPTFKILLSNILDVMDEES
In short: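 Values come from one of three formats: TR-FRET (665/615 nm ratio; Ki(app) converted to IC50 with [ATP]=Km, 0.5 nM Btk), mobility-shift product/sum ratio over 12 concentrations with 4-parameter fit, or radiometric filter binding using His-tagged full-length human Btk (8 nM), 0.2 mg/mL poly-Glu-Tyr, 1 μM ATP, 120 min RT.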

EGFR = EGFR (Homo sapiens, UniProt P00533); assay: EGFR kinase inhibition
Chain of EGFR (P00533 25-1210): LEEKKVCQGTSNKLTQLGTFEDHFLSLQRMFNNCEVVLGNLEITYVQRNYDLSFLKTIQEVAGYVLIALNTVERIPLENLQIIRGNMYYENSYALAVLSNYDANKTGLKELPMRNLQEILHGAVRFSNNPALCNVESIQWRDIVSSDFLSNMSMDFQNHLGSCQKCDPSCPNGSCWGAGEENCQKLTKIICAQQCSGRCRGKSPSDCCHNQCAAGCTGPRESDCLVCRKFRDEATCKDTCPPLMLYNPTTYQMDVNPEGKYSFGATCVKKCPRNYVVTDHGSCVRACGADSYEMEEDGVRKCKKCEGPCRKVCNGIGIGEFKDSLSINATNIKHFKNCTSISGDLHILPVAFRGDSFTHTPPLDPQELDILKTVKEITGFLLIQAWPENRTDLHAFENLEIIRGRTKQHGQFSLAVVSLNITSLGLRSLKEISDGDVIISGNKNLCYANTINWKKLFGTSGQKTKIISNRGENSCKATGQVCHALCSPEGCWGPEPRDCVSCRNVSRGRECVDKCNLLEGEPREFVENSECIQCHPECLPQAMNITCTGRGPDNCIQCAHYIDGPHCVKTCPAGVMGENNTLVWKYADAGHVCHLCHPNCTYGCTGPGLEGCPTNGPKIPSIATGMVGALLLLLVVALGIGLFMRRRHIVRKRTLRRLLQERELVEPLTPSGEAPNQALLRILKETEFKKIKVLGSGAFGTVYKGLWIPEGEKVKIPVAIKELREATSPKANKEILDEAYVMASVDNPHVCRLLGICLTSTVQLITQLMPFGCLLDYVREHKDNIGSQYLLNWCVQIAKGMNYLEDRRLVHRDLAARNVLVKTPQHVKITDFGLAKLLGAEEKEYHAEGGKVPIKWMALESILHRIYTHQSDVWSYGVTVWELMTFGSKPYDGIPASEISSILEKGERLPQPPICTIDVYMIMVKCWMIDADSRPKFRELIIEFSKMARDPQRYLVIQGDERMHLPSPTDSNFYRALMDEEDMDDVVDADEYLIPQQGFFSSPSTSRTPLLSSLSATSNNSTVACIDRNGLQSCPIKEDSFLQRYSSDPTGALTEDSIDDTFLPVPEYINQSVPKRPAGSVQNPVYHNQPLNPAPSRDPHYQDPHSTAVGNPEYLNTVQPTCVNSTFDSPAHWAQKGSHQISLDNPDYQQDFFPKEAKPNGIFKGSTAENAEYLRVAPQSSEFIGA

Lyn = Lyn (Homo sapiens, UniProt P07948); assay: Lyn kinase inhibition
Chain of Lyn (P07948 whole entry): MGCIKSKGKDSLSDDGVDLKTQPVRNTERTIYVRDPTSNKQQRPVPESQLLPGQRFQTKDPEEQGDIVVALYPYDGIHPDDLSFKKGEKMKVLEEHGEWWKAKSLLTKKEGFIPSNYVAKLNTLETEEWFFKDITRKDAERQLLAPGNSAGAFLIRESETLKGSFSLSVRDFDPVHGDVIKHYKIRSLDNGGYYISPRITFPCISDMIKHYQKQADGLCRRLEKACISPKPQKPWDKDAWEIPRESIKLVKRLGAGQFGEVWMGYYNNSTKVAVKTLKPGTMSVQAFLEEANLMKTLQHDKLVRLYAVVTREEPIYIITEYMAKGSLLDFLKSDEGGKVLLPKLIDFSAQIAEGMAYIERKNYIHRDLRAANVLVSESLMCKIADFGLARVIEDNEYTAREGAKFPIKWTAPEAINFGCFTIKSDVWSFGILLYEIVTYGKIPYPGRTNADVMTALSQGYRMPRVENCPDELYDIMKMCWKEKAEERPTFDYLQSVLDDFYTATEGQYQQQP

C-src = C-src (Homo sapiens, UniProt P12931); assay: C-src kinase inhibition
Chain of C-src (P12931 whole entry): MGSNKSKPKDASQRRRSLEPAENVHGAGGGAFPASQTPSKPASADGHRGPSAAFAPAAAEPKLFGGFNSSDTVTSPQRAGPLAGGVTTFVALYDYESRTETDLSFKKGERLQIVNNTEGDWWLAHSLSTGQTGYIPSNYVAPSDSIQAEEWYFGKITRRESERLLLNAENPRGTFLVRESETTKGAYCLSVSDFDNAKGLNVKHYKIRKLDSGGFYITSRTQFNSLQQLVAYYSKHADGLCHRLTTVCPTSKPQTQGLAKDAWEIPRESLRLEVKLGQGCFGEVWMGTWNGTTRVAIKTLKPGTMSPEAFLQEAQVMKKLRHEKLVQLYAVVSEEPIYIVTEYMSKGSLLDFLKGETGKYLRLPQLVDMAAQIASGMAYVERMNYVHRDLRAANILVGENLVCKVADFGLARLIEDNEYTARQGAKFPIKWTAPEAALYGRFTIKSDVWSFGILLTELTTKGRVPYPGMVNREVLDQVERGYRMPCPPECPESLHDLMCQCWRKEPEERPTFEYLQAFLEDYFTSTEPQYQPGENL
Description: as §1

BLK = BLK (Homo sapiens, UniProt P51451); assay: BLK kinase inhibition
Chain of BLK (P51451 whole entry): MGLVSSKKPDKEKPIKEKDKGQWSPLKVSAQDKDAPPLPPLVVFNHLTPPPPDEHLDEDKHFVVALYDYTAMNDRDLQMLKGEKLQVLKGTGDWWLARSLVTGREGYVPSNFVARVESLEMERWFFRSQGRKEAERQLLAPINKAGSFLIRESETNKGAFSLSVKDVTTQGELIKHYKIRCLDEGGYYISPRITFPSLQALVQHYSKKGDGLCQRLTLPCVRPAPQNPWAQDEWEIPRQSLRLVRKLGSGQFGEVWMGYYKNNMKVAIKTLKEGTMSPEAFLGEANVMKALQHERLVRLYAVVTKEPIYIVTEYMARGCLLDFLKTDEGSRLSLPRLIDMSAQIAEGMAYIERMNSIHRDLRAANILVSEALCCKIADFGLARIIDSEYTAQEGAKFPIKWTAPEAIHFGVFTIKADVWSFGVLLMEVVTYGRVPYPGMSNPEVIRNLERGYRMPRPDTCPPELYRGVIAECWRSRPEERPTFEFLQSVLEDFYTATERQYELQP
Description: as §1

Tec = molecular target: T2, Tec (Homo sapiens, UniProt P42680); assay: Tec kinase inhibition
T2 sequence (P42680 1-631): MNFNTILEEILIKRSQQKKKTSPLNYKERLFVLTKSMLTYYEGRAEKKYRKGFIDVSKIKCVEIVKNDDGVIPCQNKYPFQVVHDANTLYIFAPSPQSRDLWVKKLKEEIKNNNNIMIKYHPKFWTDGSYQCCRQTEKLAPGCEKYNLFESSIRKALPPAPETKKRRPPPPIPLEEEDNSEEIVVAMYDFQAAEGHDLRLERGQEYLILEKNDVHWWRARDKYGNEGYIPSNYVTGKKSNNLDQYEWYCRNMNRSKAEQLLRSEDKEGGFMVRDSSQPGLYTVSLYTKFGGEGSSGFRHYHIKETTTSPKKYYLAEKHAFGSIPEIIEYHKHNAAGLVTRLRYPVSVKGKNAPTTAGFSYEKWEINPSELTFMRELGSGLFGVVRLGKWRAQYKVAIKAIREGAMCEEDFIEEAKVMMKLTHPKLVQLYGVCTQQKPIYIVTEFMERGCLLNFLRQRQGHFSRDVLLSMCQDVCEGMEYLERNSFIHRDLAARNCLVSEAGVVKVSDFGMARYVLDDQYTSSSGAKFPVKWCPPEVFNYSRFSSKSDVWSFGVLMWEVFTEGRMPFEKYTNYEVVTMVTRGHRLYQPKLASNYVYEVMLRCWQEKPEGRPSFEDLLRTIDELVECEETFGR
Description: as §1

BMX = molecular target: T3, BMX (Homo sapiens, UniProt P51813); assay: BMX kinase inhibition
T3 sequence (P51813 1-675): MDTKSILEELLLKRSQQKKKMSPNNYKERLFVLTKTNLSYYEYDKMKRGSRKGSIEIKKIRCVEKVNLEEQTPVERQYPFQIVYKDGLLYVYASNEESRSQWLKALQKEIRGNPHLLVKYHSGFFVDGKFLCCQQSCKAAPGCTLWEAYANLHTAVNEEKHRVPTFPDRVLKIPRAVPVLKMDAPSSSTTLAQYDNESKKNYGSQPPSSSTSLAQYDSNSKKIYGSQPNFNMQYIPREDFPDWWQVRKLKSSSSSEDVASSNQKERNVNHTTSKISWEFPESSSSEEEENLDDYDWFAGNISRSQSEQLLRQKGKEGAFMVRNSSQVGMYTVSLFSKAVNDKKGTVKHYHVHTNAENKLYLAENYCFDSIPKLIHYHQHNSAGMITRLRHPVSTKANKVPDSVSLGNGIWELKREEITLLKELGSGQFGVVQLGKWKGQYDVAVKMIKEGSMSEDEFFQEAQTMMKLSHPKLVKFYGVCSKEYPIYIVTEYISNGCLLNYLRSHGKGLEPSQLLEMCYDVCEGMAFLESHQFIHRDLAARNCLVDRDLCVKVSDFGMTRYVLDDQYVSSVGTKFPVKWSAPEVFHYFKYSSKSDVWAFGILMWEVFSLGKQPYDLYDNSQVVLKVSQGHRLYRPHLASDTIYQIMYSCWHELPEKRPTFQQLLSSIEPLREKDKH

Chain of Lck (P06239 whole entry): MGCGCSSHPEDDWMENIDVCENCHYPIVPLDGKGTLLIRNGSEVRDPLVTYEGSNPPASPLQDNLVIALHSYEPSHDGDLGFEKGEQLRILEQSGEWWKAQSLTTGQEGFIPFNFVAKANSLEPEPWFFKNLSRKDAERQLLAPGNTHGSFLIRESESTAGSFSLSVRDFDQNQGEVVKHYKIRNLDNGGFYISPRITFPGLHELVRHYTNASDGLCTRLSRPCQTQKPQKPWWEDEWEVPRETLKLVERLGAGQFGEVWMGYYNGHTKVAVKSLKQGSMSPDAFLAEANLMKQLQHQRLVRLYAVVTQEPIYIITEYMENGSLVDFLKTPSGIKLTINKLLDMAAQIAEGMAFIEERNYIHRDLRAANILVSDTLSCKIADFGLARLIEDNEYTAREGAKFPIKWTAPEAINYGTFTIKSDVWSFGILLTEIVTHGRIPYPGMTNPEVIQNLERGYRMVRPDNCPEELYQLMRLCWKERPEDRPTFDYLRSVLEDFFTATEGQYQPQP
Chain of RET (P07949 29-1114): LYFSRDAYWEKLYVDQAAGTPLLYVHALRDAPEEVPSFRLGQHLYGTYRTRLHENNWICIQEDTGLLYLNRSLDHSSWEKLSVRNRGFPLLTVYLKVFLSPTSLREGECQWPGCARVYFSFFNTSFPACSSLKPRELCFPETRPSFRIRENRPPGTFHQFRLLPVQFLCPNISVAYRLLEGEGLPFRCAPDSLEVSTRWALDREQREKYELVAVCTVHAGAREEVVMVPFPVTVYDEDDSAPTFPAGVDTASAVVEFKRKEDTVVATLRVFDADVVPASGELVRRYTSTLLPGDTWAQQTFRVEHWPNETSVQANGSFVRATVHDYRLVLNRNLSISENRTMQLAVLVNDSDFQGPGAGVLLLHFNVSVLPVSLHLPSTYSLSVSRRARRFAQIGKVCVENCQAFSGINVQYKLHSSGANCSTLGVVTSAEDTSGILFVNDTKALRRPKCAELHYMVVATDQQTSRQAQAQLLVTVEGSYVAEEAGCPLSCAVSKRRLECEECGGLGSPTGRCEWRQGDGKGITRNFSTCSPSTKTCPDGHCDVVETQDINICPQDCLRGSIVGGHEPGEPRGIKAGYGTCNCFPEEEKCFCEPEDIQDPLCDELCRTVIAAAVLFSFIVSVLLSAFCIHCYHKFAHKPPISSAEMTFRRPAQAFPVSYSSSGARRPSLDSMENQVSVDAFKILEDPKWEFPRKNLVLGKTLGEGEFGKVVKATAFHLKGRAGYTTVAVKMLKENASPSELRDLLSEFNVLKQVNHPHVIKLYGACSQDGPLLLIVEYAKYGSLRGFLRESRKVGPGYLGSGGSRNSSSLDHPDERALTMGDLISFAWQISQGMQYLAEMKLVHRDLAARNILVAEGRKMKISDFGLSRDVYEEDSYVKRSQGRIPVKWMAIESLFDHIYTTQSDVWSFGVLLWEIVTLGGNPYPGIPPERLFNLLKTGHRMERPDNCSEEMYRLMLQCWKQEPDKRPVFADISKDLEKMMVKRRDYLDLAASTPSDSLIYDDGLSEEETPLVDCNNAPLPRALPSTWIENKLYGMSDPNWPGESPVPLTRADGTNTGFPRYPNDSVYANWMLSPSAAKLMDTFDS

Compound: COc1cccc(-c2nn([C@@H]3CCN(C(=O)/C=C/CN(C)C)C3)c3ncnc(N)c23)c1 [Example 6, (R,E)-1-(3-(4-amino-3-(3-methoxyphenyl)-1H-pyrazolo[3,4-d]pyrimidin-1-yl)pyrrolidin-1-yl)-4-(dimethylamino)but-2-en-1-one]
pIC50 (CSK): < 6.00 | pIC50 (RET): 6.00 to 7.00 | pIC50 (Lck): 6.00 to 7.00 | pIC50 (Btk): > 7.00 | pIC50 (EGFR): 6.00 to 7.00 | pIC50 (Lyn): 6.00 to 7.00 | pIC50 (C-src): > 7.00 | pIC50 (BLK): > 7.00 | pIC50 (Tec): > 7.00 | pIC50 (BMX): > 7.00

Compound: CN(C)C/C=C/C(=O)N1CC[C@@H](n2nc(-c3ccc(Cl)cc3F)c3c(N)ncnc32)C1 [Example 7, (R,E)-1-(3-(4-amino-3-(4-chloro-2-fluorophenyl)-1H-pyrazolo[3,4-d]pyrimidin-1-yl)pyrrolidin-1-yl)-4-(dimethylamino)but-2-en-1-one]
pIC50 (CSK): 6.00 to 7.00 | pIC50 (RET): 6.00 to 7.00 | pIC50 (Lck): 6.00 to 7.00 | pIC50 (Btk): > 7.00 | pIC50 (EGFR): 6.00 to 7.00 | pIC50 (Lyn): 6.00 to 7.00 | pIC50 (C-src): > 7.00 | pIC50 (BLK): 6.00 to 7.00 | pIC50 (Tec): > 7.00 | pIC50 (BMX): > 7.00

Compound: COc1cc(-c2nn([C@@H]3CCN(C(=O)/C=C/CN(C)C)C3)c3ncnc(N)c23)ccc1F [Example 8, (R,E)-1-(3-(4-amino-3-(4-fluoro-3-methoxyphenyl)-1H-pyrazolo[3,4-d]pyrimidin-1-yl)pyrrolidin-1-yl)-4-(dimethylamino)but-2-en-1-one]
pIC50 (CSK): < 6.00 | pIC50 (RET): < 6.00 | pIC50 (Lck): 6.00 to 7.00 | pIC50 (Btk): > 7.00 | pIC50 (EGFR): 6.00 to 7.00 | pIC50 (Lyn): < 6.00 | pIC50 (C-src): 6.00 to 7.00 | pIC50 (BLK): 6.00 to 7.00 | pIC50 (Tec): > 7.00 | pIC50 (BMX): > 7.00

Compound: COc1cc(-c2nn([C@@H]3CCN(C(=O)/C=C/CN(C)C)C3)c3ncnc(N)c23)ccc1C [Example 9, (R,E)-1-(3-(4-amino-3-(3-methoxy-4-methylphenyl)-1H-pyrazolo[3,4-d]pyrimidin-1-yl)pyrrolidin-1-yl)-4-(dimethylamino)but-2-en-1-one]
pIC50 (CSK): 6.00 to 7.00 | pIC50 (RET): < 6.00 | pIC50 (Lck): > 7.00 | pIC50 (Btk): > 7.00 | pIC50 (EGFR): > 7.00 | pIC50 (Lyn): 6.00 to 7.00 | pIC50 (C-src): > 7.00 | pIC50 (BLK): > 7.00 | pIC50 (Tec): > 7.00 | pIC50 (BMX): > 7.00

Compound: CN(C/C=C/C(=O)N1CC[C@@H](n2nc(-c3ccc(Cl)cc3)c3c(N)ncnc32)C1)C1CCC1 [Example 10, (R,E)-1-(3-(4-amino-3-(4-chlorophenyl)-1H-pyrazolo[3,4-d]pyrimidin-1-yl)pyrrolidin-1-yl)-4-(cyclobutyl(methyl)amino)but-2-en-1-one]
pIC50 (CSK): < 6.00 | pIC50 (RET): 6.00 to 7.00 | pIC50 (Lck): 6.00 to 7.00 | pIC50 (Btk): > 7.00 | pIC50 (EGFR): 6.00 to 7.00 | pIC50 (Lyn): < 6.00 | pIC50 (C-src): < 6.00 | pIC50 (BLK): 6.00 to 7.00 | pIC50 (Tec): > 7.00 | pIC50 (BMX): > 7.00

Second part, the molecule after the results:

pIC50 (CSK): < 6.00 | pIC50 (RET): < 6.00 | pIC50 (Lck): 6.00 to 7.00 | pIC50 (Btk): > 7.00 | pIC50 (EGFR): < 6.00 | pIC50 (Lyn): < 6.00 | pIC50 (C-src): < 6.00 | pIC50 (BLK): < 6.00 | pIC50 (Tec): > 7.00 | pIC50 (BMX): > 7.00
Compound: CN(C/C=C/C(=O)N1CC[C@@H](n2nc(-c3ccc(F)cc3)c3c(N)ncnc32)C1)C1CCC1 [Example 11, (R,E)-1-(3-(4-amino-3-(4-fluorophenyl)-1H-pyrazolo[3,4-d]pyrimidin-1-yl)pyrrolidin-1-yl)-4-(cyclobutyl(methyl)amino)but-2-en-1-one]

pIC50 (CSK): < 6.00 | pIC50 (RET): 6.00 to 7.00 | pIC50 (Lck): 6.00 to 7.00 | pIC50 (Btk): > 7.00 | pIC50 (EGFR): < 6.00 | pIC50 (Lyn): < 6.00 | pIC50 (C-src): 6.00 to 7.00 | pIC50 (BLK): 6.00 to 7.00 | pIC50 (Tec): > 7.00 | pIC50 (BMX): > 7.00
Compound: Cc1ccc(-c2nn([C@@H]3CCN(C(=O)/C=C/CN(C)C4CCC4)C3)c3ncnc(N)c23)cc1 [Example 12, (R,E)-1-(3-(4-amino-3-p-tolyl-1H-pyrazolo[3,4-d]pyrimidin-1-yl)pyrrolidin-1-yl)-4-(cyclobutyl(methyl)amino)but-2-en-1-one]

pIC50 (CSK): < 6.00 | pIC50 (RET): < 6.00 | pIC50 (Lck): 6.00 to 7.00 | pIC50 (Btk): > 7.00 | pIC50 (EGFR): < 6.00 | pIC50 (Lyn): < 6.00 | pIC50 (C-src): < 6.00 | pIC50 (BLK): 6.00 to 7.00 | pIC50 (Tec): > 7.00 | pIC50 (BMX): > 7.00
Compound: COc1cccc(-c2nn([C@@H]3CCN(C(=O)/C=C/CN(C)C4CCC4)C3)c3ncnc(N)c23)c1 [Example 13, (R,E)-1-(3-(4-amino-3-(3-methoxyphenyl)-1H-pyrazolo[3,4-d]pyrimidin-1-yl)pyrrolidin-1-yl)-4-(cyclobutyl(methyl)amino)but-2-en-1-one]

pIC50 (CSK): 6.00 to 7.00 | pIC50 (RET): 6.00 to 7.00 | pIC50 (Lck): 6.00 to 7.00 | pIC50 (Btk): > 7.00 | pIC50 (EGFR): 6.00 to 7.00 | pIC50 (Lyn): 6.00 to 7.00 | pIC50 (C-src): > 7.00 | pIC50 (BLK): 6.00 to 7.00 | pIC50 (Tec): > 7.00 | pIC50 (BMX): > 7.00
Compound: CN(C)C/C=C/C(=O)N(C)c1ccc(-n2nc(-c3ccc(Cl)cc3)c3c(N)ncnc32)cc1 [Example 14, (E)-N-(4-(4-amino-3-(4-chlorophenyl)-1H-pyrazolo[3,4-d]pyrimidin-1-yl)phenyl)-4-(dimethylamino)-N-methylbut-2-enamide]

pIC50 (CSK): < 6.00 | pIC50 (RET): < 6.00 | pIC50 (Lck): 6.00 to 7.00 | pIC50 (Btk): > 7.00 | pIC50 (EGFR): > 7.00 | pIC50 (Lyn): < 6.00 | pIC50 (C-src): 6.00 to 7.00 | pIC50 (BLK): > 7.00 | pIC50 (Tec): > 7.00 | pIC50 (BMX): > 7.00
Compound: CN(C)C/C=C/C(=O)N(C)c1cccc(-n2nc(-c3ccc(Cl)cc3)c3c(N)ncnc32)c1 [Example 21, (E)-N-(3-(4-amino-3-(4-chlorophenyl)-1H-pyrazolo[3,4-d]pyrimidin-1-yl)phenyl)-4-(dimethylamino)-N-methylbut-2-enamide]

pIC50 (CSK): < 6.00 | pIC50 (RET): < 6.00 | pIC50 (Lck): 6.00 to 7.00 | pIC50 (Btk): > 7.00 | pIC50 (EGFR): > 7.00 | pIC50 (Lyn): > 7.00 | pIC50 (C-src): > 7.00 | pIC50 (BLK): > 7.00 | pIC50 (Tec): > 7.00 | pIC50 (BMX): > 7.00
Compound: COc1cc(-c2nn(-c3cccc(N(C)C(=O)/C=C/CN(C)C4CCC4)c3)c3ncnc(N)c23)ccc1C [Example 23, (E)-N-(3-(4-amino-3-(3-methoxy-4-methylphenyl)-1H-pyrazolo[3,4-d]pyrimidin-1-yl)phenyl)-4-(cyclobutyl(methyl)amino)-N-methylbut-2-enamide]

From patent US9546172B2, “Pyrazolo[3,4-d]pyrimidine and pyrazolo[2,3-d]pyrimidine compounds as kinase inhibitors” (Pharmacyclics LLC, priority 2011, dated 2017)
